Consider 3 compounds from patent US7081092B2, “Methods and apparatus for monitoring and quantifying the movement of fluid” (IMCOR Pharmaceutical Company, priority 1994, dated 2006).

What all share (format): physicochemical
Data set [1] in a line: Solubility in water. The source says:
(§1) In order to stabilize microbubbles in this fashion and provide desirable harmonic characteristics, the osmotic agent is preferably present in the gas phase of the bubble at a mole fraction concentration of greater than approximately 2%, and more preferably at about 5%, 10%, 25%, 50%, or 100%. The vapor inside the bubble is preferably near saturation under the conditions of examination, preferably at least about 50%, 75% or 100% of the saturation concentration. Thus, for microbubbles used for imaging in a human, the liquid phase of the vapor in the bubble must have a vapor pressure at 37° C. greater than 2% of the pressure inside the bubble (one atmosphere plus the blood pressure of the human being examined plus the pressure caused by the surface tension of the bubble, the LaPlace pressure). This total pressure for 3 micron bubbles could reach 1.5 bar and thus requires the liquid phase of the vapor in the bubble to have a vapor pressure at 37° C. greater than approximately 23 torr. The liquid phase of the vapor should also have a low solubility in water, preferably less than 1% wt./wt.
In such systems, suitable gases are ones that have a solubility/miscibility of their liquid forms with hexane, which is a model for the hydrophobic region of surfactants, of greater than 10% mole/mole at 37° C. […]

Data set [2] can be described thus: Solubility/miscibility of liquid form with hexane. The method, then:
In such systems, suitable gases are ones that have a solubility/miscibility of their liquid forms with hexane, which is a model for the hydrophobic region of surfactants, of greater than 10% mole/mole at 37° C. For gases with a boiling point below 37° C., e.g. butane and perfluorobutane, this measurement must be carried out at elevated pressure. The adsorbing gas should be present in the bubble gas phase at a concentration of more than 2% by mole fraction of the gas mixture and preferably at about 5%, 10%, 25%, 50%, or 100%. The use of fluorinated surfactants with fluorinated gases is preferred. The liquid phase of the adsorbing gas should be relatively insoluble in water, less than 1% wt./wt. solubility/miscibility.

A short description of data set [3]: Vapor pressure at 37° C.
Description: as §1

Turning to `FC(F)(F)C(F)(F)C(F)(F)C(F)(F)F` [perfluorobutane], the Water solubility result in data set [1] is reported as “less than 1 % wt./wt”. The Solubility in hexane entry in data set [2] is on record as “greater than 10 % mole/mole”.

With `FC(F)(F)C(F)(F)C(F)(F)C(F)(F)C(F)(F)C(F)(F)F` [perfluorohexane], the Water solubility entry in data set [1] is “less than 1 % wt./wt”. Moreover, the Vapor pressure entry in data set [3] is recorded as “over 23 torr”.

On to `FC(F)(F)C(F)(F)C(F)(F)C(F)(F)C(F)(F)F` [perfluoropentane], for which, in data set [2], the “Solubility in water and hexane versus criteria for adsorption in surfactant layer” value was “meet the criteria above”.
